The values that follow come from patent US20230129095A1, “PEPTIDE INHIBITORS OF INTERLEUKIN-23 RECEPTOR AND THEIR USE TO TREAT INFLAMMATORY DISEASES” (Protagonist Therapeutics, Inc., priority 2020, published 2023).

A short description of data set [1]: Stability in cynomolgus monkey fecal homogenate (anaerobic). It is filed as in vitro ADME. Particulars: pH 6.8, 20% cynomolgus monkey fecal homogenate, 37° C., up to 24 hours, read-out: t1/2: Monkey Feces anaerobic (converted). The procedure:
(§1) Studies were carried out in human or cynomolgus monkey fecal homogenate to evaluate gastrointestinal stability of the peptide inhibitors of the present invention.
(§2) Fecal homogenate ([…]) was prepared by adding 4 mL of growth medium (1 liter contains 2 g peptone water powder, 2 g yeast extract, 0.1 g NaCl, 0.04 g KH2PO4, 0.01 g CaCl2.6H2O, 0.01 g MgSO4.7H2O, 2 mL Tween 80, 0.5 g bile salts, 0.5 g L-cysteine HCl, 2 g NaHCO3, and 10 μL Vitamin K, pH adjusted to 6.8, and sterilized by filtration through a 0.22 μm filter) to every gram of feces (pooled freshly collected human or cynomolgus monkey feces). The suspension was vortexed to break up large clumps, and homogenized using a bead mill homogenizer. Centrifuged the homogenate at 2800×g for 15 min. The supernatant is taken out and used for incubations. DMSO stocks (10 mM) were first prepared for the test compounds. Incubations were performed in an anaerobic chamber conditioned at 37° C. Aliquots of the DMSO solutions were dosed into 1.0 mL aliquots of 20% fecal homogenate, which are pre-warmed to 37° C. The final test compound concentration was 20 μM. At each timepoint (0, 20 min, 1, 3, 6, or 24 hours), 100 μL aliquot of each incubation mixture is taken out and added to separate tubes containing 300 μL of 50% acetonitrile/50% methanol and an internal standard to terminate the reaction. Samples were taken out of the anaerobic chamber and stored at 4° C. until the end of the experiment. After the final timepoint is sampled, the tubes were mixed and then centrifuged at 3,000 rpm for 10 minutes. Aliquots of the supernatant were removed, diluted 1:1 into distilled water containing 0.1% formic acid, and analyzed by LC/MS/MS. Percent remaining at each timepoint was calculated based on the peak area response ratio of test to compound to internal standard. Time 0 was set to 100%, and all later timepoints were calculated relative to time 0. Half-lives were calculated by fitting to a first-order exponential decay equation using Graphpad or Excel.

Data set [2] is described as follows: Stability in simulated intestinal fluid (SIF). The note with it: 100 fold dilution of standard SIF concentration, 37° C., 20 μM. It is filed as in vitro ADME. The procedure: Studies were carried out in simulated intestinal fluid (SIF) and simulated gastric fluid (SGF) to evaluate gastric stability of the peptide inhibitors of the present invention. In addition, studies were carried out to assess redox stability of the peptide inhibitors of the present invention.
SIF was prepared by adding 6.8 g of monobasic potassium phosphate and 10.0 g of pancreatin to 1.0 L of water. After dissolution, the pH was adjusted to 6.8 using NaOH. DMSO stocks (2 mM) were first prepared for the test compounds. Aliquots of the DMSO solutions were dosed into 6 individual tubes, each containing 0.5 mL of SIF, which is pre-warmed to 37° C. The final test compound concentration was 20 μM. The vials were kept in a benchtop Thermomixer® for the duration of the experiment. At each timepoint (0, 5, 10, 20, 40, 60, or 360 minutes or 24 hours), 1.0 mL of acetonitrile containing 1% formic acid was added to one vial to terminate the reaction. Samples were stored at 4° C. until the end of the experiment. After the final timepoint is sampled, the tubes were mixed and then centrifuged at 3,000 rpm for 10 minutes. Aliquots of the supernatant were removed, diluted 1:1 into distilled water containing internal standard, and analyzed by LCMS/MS. Percent remaining at each timepoint was calculated based on the peak area response ratio of test to compound to internal standard. Time 0 was set to 100%, and all later timepoints were calculated relative to time 0. Half-lives were calculated by fitting to a first-order exponential decay equation using Graphpad.

The test system of data set [3] is Natural killer (NK) cells. The format is cell-based, human. From the text:
Where not shown, data was not yet determined.

A further data set is described as follows: Stability in rat plasma. It is filed as in vitro ADME. The note with it: both sexes, SD rat plasma, EDTA, 37° C., up to 24 hours, read-out: t1/2: Rat Plasma EDTA. The procedure:
Peptides of interest (20 μM) were incubated with pre-warmed rat plasma (SD rat, mixed gender pooled, EDTA, filtered through 0.22 μm, BioreclamationIVT) at 37° C. Aliquots were taken at various time points up to 24 hours (e.g. 0, 0.25, 1, 3, 6 and 24 hr), and immediately quenched with 4 volumes of organic solvent (acetonitrile/methanol (1:1) and 0.1% formic acid, containing 1 μM internal standard). Quenched samples were stored at 4° C. until the end of the experiment and centrifuged at 4,000 rpm for 10 minutes. The supernatant were diluted 1:1 with deionized water and analyzed using LC-MS. Percentage remaining at each time point was calculated based on the peak area ratio (analyte over internal standard) relative to the initial level at time zero. Half-lives were calculated by fitting to a first-order exponential decay equation using GraphPad.

The nature of data set [4]: Stability in human fecal homogenate (anaerobic). The format is in vitro ADME. The note with it: pH 6.8, 20% human fecal homogenate, 37° C., up to 24 hours, read-out: t1/2: Human Feces anaerobic. The procedure: as §1, §2
Data set [5] has as its target T1, interleukin-23 receptor (IL-23R), human (human, UniProt Q5VWK5 24-629).
T1 sequence (looked up): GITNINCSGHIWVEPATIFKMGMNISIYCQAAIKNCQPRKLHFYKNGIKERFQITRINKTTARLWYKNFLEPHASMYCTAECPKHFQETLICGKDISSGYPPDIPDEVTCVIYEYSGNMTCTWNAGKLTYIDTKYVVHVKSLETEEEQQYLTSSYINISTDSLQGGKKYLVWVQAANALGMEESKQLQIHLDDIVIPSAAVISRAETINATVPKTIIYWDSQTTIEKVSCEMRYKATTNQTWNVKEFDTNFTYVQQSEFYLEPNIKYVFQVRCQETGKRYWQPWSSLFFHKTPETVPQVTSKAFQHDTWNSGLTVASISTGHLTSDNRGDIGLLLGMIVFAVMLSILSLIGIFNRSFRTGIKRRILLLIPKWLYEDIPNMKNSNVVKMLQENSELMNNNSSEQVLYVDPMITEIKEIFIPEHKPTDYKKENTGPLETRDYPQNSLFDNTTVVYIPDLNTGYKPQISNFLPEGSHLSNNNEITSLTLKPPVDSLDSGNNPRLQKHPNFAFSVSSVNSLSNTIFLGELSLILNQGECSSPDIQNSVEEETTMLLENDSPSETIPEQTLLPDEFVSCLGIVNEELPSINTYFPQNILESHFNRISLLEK
Nature of the data set: cell-based or functional assay.

Setting [6] is: 20% fecal homogenate (supernatant).

The term IC50 denotes the concentration at which inhibition is half-maximal.

*1 amine or outer side, *2 acyl side, *3 side chain or, on linkers, in order; H or OH if unused. Where a SMILES comes first, the peptide text is derived from it. Bridges are numbered along the chain shown (N, C = ends). [ ]: non-standard residue; d: D form. X5 = CC(C)c1cccc(-c2cccc3c(C[C@H](N[*:1])C(=O)[*:2])c[nH]c23)c1; X3 = Cc1cccc(-c2cccc3c(C[C@H](N[*:1])C(=O)[*:2])c[nH]c23)c1; Trp(7-Ph) = N[C@@H](Cc1c[nH]c2c(-c3ccccc3)cccc12)C(=O)O; X4 = O=C([C@H](Cc1c[nH]c2c(-c3ccsc3)cccc12)N[*:1])[*:2]; Ala(quinolin-3-yl) = N[C@@H](Cc1cnc2ccccc2c1)C(=O)O; 2Nal = N[C@@H](Cc1ccc2ccccc2c1)C(=O)O; Trp(7-thienyl) = 7-thienyl-tryptophan; AEF = NCCOc1ccc(C[C@H](N)C(=O)O)cc1; Pen = CC(C)(S)[C@H](N)C(=O)O; αMeK = C[C@](N)(CCCCN)C(=O)O; Thp = NC1(C(=O)O)CCOCC1; Abu = CC[C@H](N)C(=O)O Bounds are passed on as bounds.

As to `CC(=O)NCCCC[C@@H]1NC(=O)[C@H](Cc2c[nH]c3c(-c4cccc(C)c4)cccc23)NC(=O)[C@H]([C@@H](C)O)NC(=O)[C@H](CC(N)=O)NC(=O)[C@@H](NC(C)=O)C(C)(C)SSC(C)(C)[C@@H](C(=O)N[C@@H](Cc2ccc(OCCN)cc2)C(=O)N[C@@H](Cc2ccc3ccccc3c2)C(=O)N[C@@](C)(CCCCN)C(=O)N[C@@H](CCCCNC(C)=O)C(=O)N[C@@H](CC(N)=O)C(=O)N[C@H](CCCCN)C(N)=O)NC1=O` [Peptide 7, Ac-[Pen]-N-T-[W(7-(3-MePh))]-[Lys(Ac)]-[Pen]-Phe[4-(2-aminoethoxy)]-[2-Nal]-[a-MeLys]-[Lys(Ac)]-N-[(D)Lys)]-NH2] (Ac-[Pen]NT[X3]K(Ac)[Pen][AEF][2Nal][αMeK]K(Ac)N[dK]-NH2; disulfide 1-6), the half-life at 20 μM (in data set [1]; in the data set “Stability in rat plasma” (pooled); in data set [4]) was more than 24 h throughout. In data set [2], the “SIF t1/2” value is 24 h. In data set [3], the midpoint of inhibition, the IC50, lay at 5.87 nM.
In the case of `CC(=O)NCCCC[C@@H]1NC(=O)[C@H](Cc2c[nH]c3c(-c4ccccc4)cccc23)NC(=O)[C@H]([C@@H](C)O)NC(=O)[C@H](CC(N)=O)NC(=O)[C@@H](NC(C)=O)C(C)(C)SSC(C)(C)[C@@H](C(=O)N[C@@H](Cc2ccc(OCCN)cc2)C(=O)N[C@@H](Cc2cnc3ccccc3c2)C(=O)NC2(C(=O)N[C@@H](CCC(=O)O)C(=O)N[C@@H](CC(N)=O)C(=O)N[C@H](CCCCN)C(N)=O)CCOCC2)NC1=O` [Peptide 13, Ac-[Pen]-N-T-[W(7-Ph)]-[Lys(Ac)]-[Pen]-Phe[4-(2-aminoethoxy)]-[3Quin]-[THP]-E-N-[(D)Lys]-NH2] (Ac-[Pen]NT[Trp(7-Ph)]K(Ac)[Pen][AEF][Ala(quinolin-3-yl)][Thp]EN[dK]-NH2; disulfide 1-6), the half-life at 20 μM (in data set [1] (setting [6]); in the data set “Stability in rat plasma”; in data set [4] (setting [6])) was more than 24 h throughout. In data set [2], the “SIF t1/2” value is 24 h. This molecule also had an IC50 in data set [3] of 1.55 nM.
`CC(=O)NCCCC[C@H](NC(=O)[C@](C)(CCCCN)NC(=O)[C@H](Cc1ccc2ccccc2c1)NC(=O)[C@H](Cc1ccc(OCCN)cc1)NC(=O)[C@H]1NC(=O)[C@H](CCC(N)=O)NC(=O)[C@H](Cc2c[nH]c3c(-c4ccsc4)cccc23)NC(=O)[C@H]([C@@H](C)O)NC(=O)[C@H](CC(N)=O)NC(=O)[C@@H](NC(C)=O)C(C)(C)SSC1(C)C)C(=O)N[C@@H](CC(N)=O)C(=O)N[C@H](CCCCN)C(N)=O` [Peptide 2] (Ac-[Pen]NT[X4]Q[Pen][AEF][2Nal][αMeK]K(Ac)N[dK]-NH2; disulfide 1-6): the half-life at 20 μM (in data set [1] (setting [6]); in the data set “Stability in rat plasma”; in data set [4] (setting [6])) was more than 24 h in each case. Besides, the “SIF t1/2” value in data set [2] is 24 h.
On to `CC(=O)NCCCC[C@@H]1NC(=O)[C@H](Cc2c[nH]c3c(-c4cccc(C(C)C)c4)cccc23)NC(=O)[C@H]([C@@H](C)O)NC(=O)[C@H](CC(N)=O)NC(=O)[C@@H](NC(C)=O)C(C)(C)SSC(C)(C)[C@@H](C(=O)N[C@@H](Cc2ccc(OCCN)cc2)C(=O)N[C@@H](Cc2ccc3ccccc3c2)C(=O)N[C@@](C)(CCCCN)C(=O)N[C@@H](CCCCNC(C)=O)C(=O)N[C@@H](CC(N)=O)C(=O)N[C@H](CCCCN)C(N)=O)NC1=O` [Peptide 11, Ac-[Pen]-N-T-[W(7-(3-iPrPh))]-[Lys(Ac)]-[Pen]-Phe[4-(2-aminoethoxy)]-[2-Nal]-[a-MeLys]-[Lys(Ac)]-N-[(D)Lys)]-NH2] (Ac-[Pen]NT[X5]K(Ac)[Pen][AEF][2Nal][αMeK]K(Ac)N[dK]-NH2; disulfide 1-6), for which the half-life at 20 μM (in data set [1]; in the data set “Stability in rat plasma” (pooled); in data set [4]) was more than 24 h throughout. In addition, in data set [2], the “SIF t1/2” value is 24 h.
On to Ac-[Abu]QT[Trp(7-Ph)]K(Ac)C[AEF][2Nal][αMeK]K(Ac)N[dK]-NH2 (thioether 1-6) [Peptide No. 19 (SEQ ID No. 19)], for which, in data set [5], the “pStat3 HTRF IC50 (DB cells IL23R pSTAT3 cell assay, 0.5 nM IL-23)” value (“pStat3 HTRF IC50” below) was 2.57 nM.
Consider Ac-[dR][Abu]QT[Trp(7-Ph)]K(Ac)C[AEF][2Nal][αMeK]K(Ac)N-NH2 (thioether 2-7) [Peptide No. 4 (SEQ ID No. 4)], for which the “pStat3 HTRF IC50” value in data set [5] stood at 49.4 nM.
For Ac-[dR][Abu]QT[Trp(7-Ph)]K(Ac)C[AEF][2Nal][αMeK]K(Ac)N[dL]-NH2 (thioether 2-7) [Peptide No. 3 (SEQ ID No. 3)], the “pStat3 HTRF IC50” value in data set [5] amounted to 9.42 nM.
Ac-[dR][Abu]QT[Trp(7-Ph)]K(Ac)C[AEF][2Nal][αMeK]K(Ac)N[dK]-NH2 (thioether 2-7) [Peptide No. 5 (SEQ ID No. 5)]: the “pStat3 HTRF IC50” value in data set [5] was found to be 8.53 nM.
On the same count and under the same terms, with Ac-[Pen]NT[Trp(7-thienyl)]Q[Pen][AEF][2Nal][αMeK]K(Ac)N[dK]-NH2 (disulfide 1-6) [Peptide No. 2 (SEQ ID No. 2)] the figure was 1.21 nM.
